Reference: article PMC9106635, “Stimulation of the atypical chemokine receptor 3 (ACKR3) by a small-molecule agonist attenuates fibrosis in a preclinical liver but not lung injury model” (Cellular and Molecular Life Sciences: CMLS, 2022)

Key:
[1] = test system: CCl4-induced liver fibrosis in C57BL/6J mice; experiment: CCl4-induced liver fibrosis model; assay type: in vivo, mouse; conditions: 45 mg/kg/dose PO QD, day 28, vs CCl4 + captisol; P < 0.0001 and P = 0.004
Protocol: A preclinical mouse model for CCl4-induced liver fibrosis was performed at the Department of Metabolic Health Research, The Netherlands Organisation for Applied Scientific Research (TNO) (Leiden, The Netherlands). Fifty-two male C57BL/6J mice were matched on body weight prior to the study and divided into five groups (experimental study design, Supplementary Figure S1a). Starting at day 0, 10–12-week-old mice were intraperitoneally (i.p.) injected (three times a week) with mineral oil (group 1) or CCl4 (15% v/v in mineral oil, group 2–5) for a total of 28 days. At day 0, mice received subcutaneous treatment with compound 18a (15 mg/kg/dose, twice daily (BID), group 3), or corresponding vehicle control (23% HPBCD, twice daily (BID), groups 1 and 2)], or received daily gavage with either an ALK5/ALK4 kinase inhibitor [SM 16 (45 mg/kg/dose, PO, QD, group 5) or its corresponding vehicle control (β-cyclodextrin sulfobutyl ether sodium salt or captisol, PO, QD, group 4)]. Plasma samples were collected by a tail vein bleed at day 7. At day 28, mice were sacrificed using CO2 and additional plasma samples and liver lobes were collected. As a primary endpoint collagen surface area was determined on cross-sections of the lateral left lobe by picro sirius red (PSR) staining. As a secondary endpoint collagen content (hydroxyproline) of the left median lobe was analyzed using a chromogenic assay according to the manufacturer’s instructions (QuickZyme Biosciences, Leiden, The Netherlands).

[2] = test system: mouse CXCL12 plasma levels; experiment: Mouse CXCL12 plasma determination (Bio-Plex); assay type: in vivo; conditions: liver fibrosis model, day 28, 45 mg/kg/dose PO QD
Protocol: CXCL12 plasma levels were determined using Bio-Plex Pro Mouse Chemokine SDF-1a/CXCL12 (Bio-Rad) according to the manufacturer’s protocol. Prior to the assay mouse plasma samples were centrifuged for 15 min at 1000×g at 4 °C to remove any particulates. A four-fold dilution series of mouse CXCL12, blank samples and 1:5 diluted plasma samples were prepared. A 1:1 mixture of magnetic beads (50 µL/well) and sample (50 µL/well) was added to the 96-well assay plate, which was then sealed and incubated (30 min at RT) on a plate shaker at 850 rpm protected from light. After washing three times with wash buffer 25 µL/well detection antibody was added and the plate was again incubated as described above. The plate was again washed three times (100 µL/well wash buffer) followed by the addition of streptavidin-PE (50 µL/well). The plate was sealed and incubated (10 min at RT) at 850 rpm protected from light. Finally, the plate was again washed three times and the magnetic beads were resuspended in fresh assay buffer (152 µL/well). The plate was sealed and shaken for an additional 30 s before being analyzed with the Bioplex 200 System. Data were analyzed with the Bio-Plex Manager Software.

SMILES: Cc1cccc(-c2[nH]c(C34CCC(C(N)=O)(CC3)CC4)nc2-c2ccc3c(c2)OCO3)n1 [SM 16, reference compound]
- liver fibrosis: PSR-positive area and hydroxyproline content [1]: significantly attenuated liver fibrosis
- plasma CXCL12 levels [2]: no further increase of plasma CXCL12 was observed
